In experiment [1] the target is eIF4E (Mus musculus, UniProt P63073). In words: FP assay competing with fluorogenic eIF4G-derived peptide (KRYDREFLLGF). Conditions: relative to hit compound 1. Type of experiment: binding. As for the experimental part: The values indicate the average concentration needed to inhibit 50% of cell proliferation. […] A dual luciferase reporter mRNA was translated for 90 minutes at 30° C. in RedNova reticulocyte lysate (Novagen) in the presence of increasing concentrations of the compound. […] (purple) activity was measured and normalized against an untreated control reaction. The m^7GDP and emetine were used as the positive and negative controls, respectively.
eIF4E, sequence (P63073 whole entry): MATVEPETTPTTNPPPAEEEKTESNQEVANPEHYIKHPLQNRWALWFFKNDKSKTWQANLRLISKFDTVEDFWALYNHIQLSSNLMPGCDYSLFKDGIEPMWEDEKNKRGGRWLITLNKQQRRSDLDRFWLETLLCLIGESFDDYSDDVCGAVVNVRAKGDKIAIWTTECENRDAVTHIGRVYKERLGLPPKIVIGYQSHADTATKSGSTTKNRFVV
Displacement of Nα-fluorescein tagged eIF4G-derived peptide by a competing ligand causes a large decrease in fluorescence polarization. The non-tagged version of the same eIF4G-derived peptide and DMSO were used as positive and negative control, respectively.

The subject of experiment [2] is A549 and HT29 cell lines. In words: Alamar Blue growth inhibition, statements covering both A549 and HT29. The format is cell-based, human. As to conditions: for GI50: Homo sapiens. Here is the method:
Adherent human solid tumor cells were plated and maintained for 3 days in the presence of increasing concentration of the compounds, and cell proliferation was measured by alamar blue assay, where 10% of commercially available solution is added to the cell medium and measure fluorescence in 96-well plates at wavelength of 530 nm excitation and 590 nm emission. The data calculations were carried out as previously described.
Compounds were further tested for cell growth inhibition in a human lung cancer cell line (A549) and conlon cancer cell line (HT29). The Alamar Blue assay, which specifically measures the inhibition of cell proliferation, was used to assess the GI50's of the compounds.

The subject of experiment [3] is A549 lung cancer cells. Description: A549 proliferation, sulforhodamine B (SRB) assay. Type of experiment: cell-based, human. Conditions: sulforhodamine B assay, triplicate. As for the experimental part:
FIG. 28 is a graph showing the results of a cell proliferation assay. A549 cells, which are human lung cancer cells, are grown in plates for five days in medium containing 5% FCS and compound. The number of cells is quantified by staining with sulforhodamine B.

In experiment [4] the test system is cap-dependent translation. Description: In vitro translation of dual luciferase reporter in rabbit reticulocyte lysate, cap-dependent Renilla luciferase. The format is biochemical. The source says: (§1) To determine the relative effects of the compound on cap dependent and independent translation, we utilized a bicistronic mRNA construct containing the gene for Renilla luciferase under the control of the cap and the message for firefly luciferase under the control of the cricket paralysis virus IRES (FIG. 2A). […] A dicistronic reporter construct containing the Renilla reniformis luciferase sequence after the 5′ UTR followed by the CrPV IRES and the firefly luciferase sequence was used to build a reporter construct plasmid. The reporter construct plasmid was linearized with BamHI and transcribed in vitro with an ARCA cap using the mMessage Machine T7 Ultra Kit (Ambion). In vitro translation reactions were carried out using Red Nova reticulocyte lysate (Novagen) with 2 mM magnesium acetate and […] potassium acetate, incubated at 30 degrees C. for 90 minutes. Translation of reporter genes was measured using the Dual-Glo luciferase assay (Promega) in a Wallac Victor^2 plate reader.
(§2) In addition to structurally characterizing the binding of our hit compounds, biological activities of the compounds was evaluated. […] To test this hypothesis in vitro, a translation assay in rabbit reticulocyte lysate was carried out. A dicistronic reporter construct containing a cap-dependent Renilla luciferase and a cricket paralysis virus IRES driven firefly luciferase was utilized to measure the relative affect of a compound on both translation mechanisms.
(§3) A functional cell free assay determined the relative effects of the compounds on cap- and IRES-dependent translations. This assay involved the in vitro translation of bicistronic mRNA reporter construct encoding for renilla luciferase in a cap-dependent and for firefly luciferase in a cap independent manner, the later driven by cricket paralysis virus IRES.

Experiment [5] addresses T1, eIF4E/eIF4G interaction (Mus musculus, UniProt P63073).
T1 construct: made in house; host or cells: E. coli
Description: Fluorescence polarization assay: binding of fluorescein-labeled eIF4G peptide to eIF4E. Details: species or system murine. Conditions: for IC50: triplicate, SD<±10%, read-out: IC50 (μM) (4E/4G FP). Here is the method:
We adapted this assay to a microwell plate format and used it to screen the 16,000 compound Chembridge DiverSet E library. […] For screening and subsequent peptide binding assays measurements of fluorescence polarization were made using an LJL Analyst plate reader. For the screening assay a solution containing approximately 5 μM meIF4E, 60 nM labeled peptide, 0.05% bovine γ-globulin, and 2 mM DTT in a buffer composed of 50 mM sodium phosphate and 50 mM potassium chloride at pH 6.5 was used. […] The curve fitting for estimation of binding constants used equations derived by Roehrl et al.^22 Measurements of fluorescence polarization and anisotropy were made in black 384-well plates (Corning) using an Analyst plate reader (LJL Biosystems) Compounds were transferred to plates during the screening using a custom-built Seiko pin transfer robot at the Institute for Chemistry and Cell Biology (ICCB) at Harvard Medical School.
A fluorescence polarization (FP) assay was developed to measure binding of a peptide containing the conserved eIF4E-binding motif to eIF4E.
The assay was adapted to a microwell plate format and used to screen a number of libraries comprised of small molecule libraries for potential eIF4E/eIF4G interaction inhibitors.

Experiment [6] concerns IRES driven translation. Description: In vitro translation of dual luciferase reporter in rabbit reticulocyte lysate, CrPV IRES driven firefly luciferase. Type of experiment: biochemical.
Source text: as §1, §2, §3

[7] abbreviates: HT29 or A549, at least one, read-out: GI50 in at least one cell line.
The mark [8] stands for this setting: HT29 and A549, both, read-out: GI50 in both cell lines.
Setting [9] is: Homo sapiens, A549, Table 1 of b280.
Setting [10] is: Homo sapiens, A549, Table 1 of b347.

Molecules are shown by their SMILES. Like-named read-outs stand apart in the source and are kept apart here.

T1 sequence (P63073 whole entry): as above

Consider `O=C(O)C(Cc1ccccc1[N+](=O)[O-])=NNc1nc(-c2ccccc2)cs1` [4a], for which the “binding affinity / potency in FP assay compared with hit compound 1” value in experiment [1] is “dramatic decrease”. Moreover, in experiment [2] (HT29 and A549), the “growth inhibition of both cell lines compared with hit compound 1” value is “dramatic decrease”.

Consider `O=C(O)C(Cc1ccccc1)=NNc1nc(-c2ccccc2)cs1` [4b], for which halving of growth in experiment [3] (Table 1) (GI50) required 4 µM. Also, the “cap-dependent translation (Renilla luciferase)” value (“cap-dependent translation” for short) in experiment [4] is on record as “Inhibition of cap-dependent translation”. Also, in experiment [5] (Table 1 of b280), the IC50 is more than 600 µM.

For the compound `O=C(O)C(Cc1ccccc1[N+](=O)[O-])=NNc1nc(-c2ccc3ccccc3c2)cs1` [4c, 2-[(4-Naphthalen-2-yl-thiazol-2-yl)-hydrazono]-3-(2-nitro-phenyl)-propionic acid], the GI50 in experiment [2] (setting [7]) is less than 10 µM.

Take `O=C(O)C(Cc1ccccc1[N+](=O)[O-])=NNc1nc(-c2ccc3c(c2)OCCO3)cs1` [4d, 2-{[4-(2,3-Dihydro-benzo[1,4]dioxin-6-yl)-thiazol-2-yl]-hydrazono}-3-(2-nitro-phenyl)-propionic acid]: in experiment [1], the “binding affinity / potency in FP assay compared with hit compound 1” value was “more than 2 fold”. Besides, the concentration for 50% growth inhibition (GI50) in experiment [2] (setting [7]) was less than 10 µM.

Regarding `O=C(O)C(Cc1ccccc1[N+](=O)[O-])=NNc1nc(-c2ccc(-c3ccccc3)cc2)cs1` [4f, 2-[(4-Biphenyl-4-yl-thiazol-2-yl)-hydrazono]-3-(2-nitro-phenyl)-propionic acid], in experiment [2] (setting [7]), the GI50 was less than 10 µM.

Regarding `O=C(O)C(Cc1ccccc1[N+](=O)[O-])=NNc1nc(-c2ccc(N3CCOCC3)cc2)cs1` [4h, 2-{[4-(4-Morpholin-4-yl-phenyl)-thiazol-2-yl]-hydrazono}-3-(2-nitro-phenyl)-propionic acid], the “binding affinity / potency in FP assay compared with hit compound 1” value in experiment [1] is reported as “significantly less active”. For the same compound, the GI50 in experiment [2] (setting [8]) is more than 24 µM.

On to `O=C(O)C(Cc1ccccc1[N+](=O)[O-])=NNc1nc(-c2ccc(N3CCCC3)cc2)cs1` [4i, 3-(2-Nitro-phenyl)-2-{[4-(4-pyrrolidin-1-yl-phenyl)-thiazol-2-yl]-hydrazono}-propionic acid], for which the “binding affinity / potency in FP assay compared with hit compound 1” value in experiment [1] is recorded as “significantly less active”. In addition, the GI50 in experiment [2] (setting [8]) is more than 24 µM.

With `O=C(O)C(Cc1ccccc1[N+](=O)[O-])=NNc1nc(-c2ccc(N=Nc3ccccc3)cc2)cs1` [4j], in experiment [1], the “binding affinity / potency in FP assay compared with hit compound 1” value was approximately 3 fold.

`O=C(O)/C(=N/Nc1nc(-c2ccccc2)cs1)c1ccccc1` [Z-6, Phenyl-[(4-phenyl-thiazol-2-yl)-hydrazono]-acetic acid]: the GI50 in experiment [3] (setting [9]) and in experiment [3] (setting [10]) was 13 µM in each case. Also, the IC50 in experiment [5] (Table 1 of b280) and in experiment [5] (Table 1 of b347) was more than 600 µM in each case.

As for `C/C(=N\Nc1nc(-c2ccccc2)cs1)C(=O)O` [Z-7, 2-[(4-Phenyl-thiazol-2-yl)-hydrazono]-propionic acid], the GI50 in experiment [3] (setting [9]) and in experiment [3] (setting [10]) was more than 20 µM in each case. In addition, the IC50 in experiment [5] (Table 1 of b280) and in experiment [5] (Table 1 of b347) was more than 600 µM throughout.

For `Cc1sc(N/N=C(\Cc2ccccc2)C(=O)O)nc1-c1ccccc1` [Z-9, 2-[(5-Methyl-4-phenyl-thiazol-2-yl)-hydrazono]-3-phenyl-propionic acid], the GI50 in experiment [3] (setting [9]) and in experiment [3] (setting [10]) was 4 µM each time. For the same compound, the IC50 in experiment [5] (Table 1 of b280) and in experiment [5] (Table 1 of b347) was 240 µM each time.

Turning to `O=C(O)/C(Cc1ccccc1)=N/Nc1nc(-c2ccccc2)c(-c2ccccc2)s1` [Z-10, 2-[(4,5-Diphenyl-thiazol-2-yl)-hydrazono]-3-phenyl-propionic acid], the GI50 in experiment [3] (setting [9]) and in experiment [3] (setting [10]) was 1 µM in each case. For the same compound, the IC50 in experiment [5] (Table 1 of b280) and in experiment [5] (Table 1 of b347) was 50 µM each time. Besides, the “potency compared with its E isomer” value in experiment [5] (eIF4E/4G assay) is “two-fold more potent”. Also, the “potency compared with the initial hit” value in experiment [5] (eIF4E/4G assay) is “one order of magnitude more potent”.

As for `O=C(O)/C(Cc1ccccc1)=N/Nc1nc2ccccc2s1` [Z-11, 2-(Benzothiazol-2-yl-hydrazono)-3-phenyl-propionic acid], the concentration for 50% growth inhibition (GI50) is more than 20 µM in experiment [3] (Table 1) and more than 20 µM in experiment [3] (Table 1, listed as Z-4p). The IC50 in experiment [5] (Table 1 of b280) and in experiment [5] (Table 1 of b347) was more than 600 µM each time.

With `COC(=O)/C(Cc1ccccc1)=N/Nc1nc(-c2ccccc2)cs1` [Z-13, 3-Phenyl-2-[(4-phenyl-thiazol-2-yl)-hydrazono]-propionic acid methyl ester], the GI50 in experiment [3] (setting [9]) and in experiment [3] (setting [10]) was 11 µM each time. Also, the IC50 in experiment [5] (Table 1 of b280) and in experiment [5] (Table 1 of b347) was more than 600 µM each time.

In the case of `OC/C(Cc1ccccc1)=N/Nc1nc(-c2ccccc2)cs1` [Z-15, 3-Phenyl-2-[(4-phenyl-thiazol-2-yl)-hydrazono]-propan-1-ol], the 50% growth inhibitory concentration (GI50) in experiment [3] (setting [9]) and in experiment [3] (setting [10]) was 14 µM each time. Moreover, the IC50 in experiment [5] (Table 1 of b280) and in experiment [5] (Table 1 of b347) was more than 600 µM each time.

In the case of `O=C(O)/C(Cc1ccccc1)=N\Nc1nnc(-c2ccccc2)s1` [Z-16, 3-Phenyl-2-[(5-phenyl-[1,3,4]thiadiazol-2-yl)-hydrazono]-propionic acid], the GI50 in experiment [3] (setting [9]) and in experiment [3] (setting [10]) was more than 10 µM each time. Besides, the IC50 in experiment [5] (Table 1 of b280) and in experiment [5] (Table 1 of b347) was more than 600 µM throughout.

Consider `O=C(O)/C(Cc1ccccc1)=N/Nc1ccc(-c2ccccc2)nn1` [Z-17, 3-Phenyl-2-[(6-phenyl-pyridazin-3-yl)-hydrazono]-propionic acid], for which the concentration for 50% growth inhibition (GI50) in experiment [3] (setting [9]) is more than 10 µM. Besides, in experiment [5] (Table 1 of b280), the IC50 is more than 600 µM.

`O=C(O)/C(Cc1ccccc1)=N/NC(=S)NCc1ccccc1` [compound 8]: the concentration for 50% growth inhibition (GI50) in experiment [3] (setting [9]) and in experiment [3] (setting [10]) was more than 10 µM throughout. Besides, the IC50 in experiment [5] (Table 1 of b280) and in experiment [5] (Table 1 of b347) was 550 µM throughout.

As for `O=C(Cc1ccccc1)NNc1nc(-c2ccccc2)cs1` [compound 12], the GI50 in experiment [3] (setting [10]) is more than 20 µM. In addition, the IC50 in experiment [5] (Table 1 of b347) is more than 600 µM.

With `O=[N+]([O-])c1ccccc1CC(CO)NNc1nc(-c2ccc(Cl)c(Cl)c2)cs1` (stereo not shown) [compound 14, 2-{N′-[4-(3,4-Dichloro-phenyl)-thiazol-2-yl]-hydrazino}-3-(2-nitro-phenyl)-propan-1-ol], the 50% growth inhibitory concentration (GI50) in experiment [3] (setting [10]) was 4 µM. For the same compound, in experiment [5] (Table 1 of b347), the IC50 is more than 600 µM.

Consider `CC[C@H]1CN2CCc3cc(OC)c(OC)cc3[C@@H]2C[C@@H]1C[C@H]1NCCc2cc(OC)c(OC)cc21` [emetine, reference compound], for which the “cap-dependent translation” value in experiment [4] is “inhibits translation of both messages equally well”. Also, the “IRES driven / cap-independent translation (firefly luciferase)” value in experiment [6] is recorded as “inhibits translation of both messages equally well”.

`Cn1c[n+]([C@@H]2O[C@H](COP(=O)(O)OP(=O)([O-])O)[C@@H](O)[C@H]2O)c2nc(N)[nH]c(=O)c21` [m7GDP, reference compound]: the “cap-dependent translation” value in experiment [4] is listed as “specifically inhibits the cap-dependent message”.

Source of the values: patent US8257931B2 (President and Fellows of Harvard College, priority 2005, dated 2012).
